# From ChEMBL document CHEMBL1201862, “PubChem BioAssay data set” (2004)
#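 How tested: cells in 96-well plates exposed to compound for 48 hours at five concentrations. At the GI50, growth is halved.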 Active and inactive are the calls of the source. Cut-off read from the data, not from the text of the source: active = GI50 up to about 1.1 µM and inactive = higher.
# Key:
# Assay in all cases: DTP human tumour cell line panel, 48 h
# [1] = test system: IGROV-1
# [2] = test system: OVCAR-3
# [3] = test system: DMS-114
# [4] = test system: OVCAR-4
# [5] = test system: LXFL 529
# [6] = test system: XF498
# [7] = test system: K562
# [8] = test system: HCC 2998
# [9] = test system: SW-620
# [10] = test system: A549
# [11] = test system: SNB-78
# [12] = test system: COLO 205
# [13] = test system: HCT-116
# [14] = test system: SF-295
# [15] = test system: SN12C
# [16] = test system: HL-60
# [17] = test system: HOP-18
# [18] = test system: NCI-H522
# [19] = test system: EKVX
# [20] = test system: NCI-H460
# [21] = test system: SK-MEL-5
# [22] = test system: DMS-273
# [23] = test system: SF-539
# [24] = test system: 786-0
# [25] = test system: OVCAR-8
# [26] = test system: SK-MEL-28
# [27] = test system: M14
# [28] = test system: SK-OV-3
# [29] = test system: HT-29
# [30] = test system: MOLT-4
# [31] = test system: LOX IMVI
# [32] = test system: UACC-257
# [33] = test system: SNB-75
# [34] = test system: UO-31
# [35] = test system: SNB-19
# [36] = test system: ACHN
# [37] = test system: NCI-H226
# [38] = test system: SK-MEL-2
# [39] = test system: U-251
# [40] = test system: RXF 393
# [41] = test system: HOP-92
# [42] = test system: TK-10
# [43] = test system: CAKI-1
# [44] = test system: CCRF-CEM
# [45] = test system: HOP-62
# [46] = test system: UACC-62
# [47] = test system: DLD-1
# [48] = test system: A498
# [49] = test system: RPMI-8226
# [50] = test system: Malme-3M
# [51] = test system: RXF 631
# [52] = test system: M19-MEL
# [53] = test system: KM12
# [54] = test system: NCI-H23
# [55] = test system: BT-549
# [56] = test system: MDA-MB-435
# [57] = test system: Hs-578T
# [58] = test system: KM-20L2
# [59] = test system: HCT-15
# [60] = test system: PC-3
# [61] = test system: SF-268
# [62] = test system: SR
# [63] = test system: OVCAR-5
# [64] = test system: NCI/ADR-RES
# [65] = test system: MCF7
# [66] = test system: MDA-MB-231
# [67] = test system: T47D
# [68] = test system: MDA-N
# [69] = test system: DU-145
compound,measurement,setting,value
COC(=O)CCC(=O)Nc1cc(C)ccc1C,GI50,[1],> 100 µM (inactive)
same,GI50,[2],> 100 µM (inactive)
same,GI50,[3],> 100 µM (inactive)
same,GI50,[4],> 100 µM (inactive)
same,GI50,[5],> 100 µM (inactive)
same,GI50,[6],> 100 µM (inactive)
same,GI50,[7],> 100 µM (inactive)
same,GI50,[8],> 100 µM (inactive)
same,GI50,[9],> 100 µM (inactive)
same,GI50,[10],> 100 µM (inactive)
same,GI50,[11],> 100 µM (inactive)
same,GI50,[12],> 100 µM (inactive)
same,GI50,[13],> 100 µM (inactive)
same,GI50,[14],> 100 µM (inactive)
same,GI50,[15],> 100 µM (inactive)
same,GI50,[16],> 100 µM (inactive)
same,GI50,[17],> 100 µM (inactive)
same,GI50,[18],> 100 µM (inactive)
same,GI50,[19],> 100 µM (inactive)
same,GI50,[20],> 100 µM (inactive)
same,GI50,[21],> 100 µM (inactive)
same,GI50,[22],> 100 µM (inactive)
same,GI50,[23],> 100 µM (inactive)
same,GI50,[24],> 100 µM (inactive)
same,GI50,[25],> 100 µM (inactive)
same,GI50,[26],> 100 µM (inactive)
same,GI50,[27],> 100 µM (inactive)
same,GI50,[28],> 100 µM (inactive)
same,GI50,[29],> 100 µM (inactive)
same,GI50,[30],> 100 µM (inactive)
same,GI50,[31],> 100 µM (inactive)
same,GI50,[32],> 100 µM (inactive)
same,GI50,[33],> 100 µM (inactive)
same,GI50,[34],> 100 µM (inactive)
same,GI50,[35],> 100 µM (inactive)
same,GI50,[36],> 100 µM (inactive)
same,GI50,[37],> 100 µM (inactive)
same,GI50,[38],> 100 µM (inactive)
same,GI50,[39],> 100 µM (inactive)
same,GI50,[40],> 100 µM (inactive)
same,GI50,[41],> 100 µM (inactive)
same,GI50,[42],> 100 µM (inactive)
same,GI50,[43],> 100 µM (inactive)
same,GI50,[44],> 100 µM (inactive)
same,GI50,[45],> 100 µM (inactive)
same,GI50,[46],> 100 µM (inactive)
same,GI50,[47],> 100 µM (inactive)
same,GI50,[48],> 100 µM (inactive)
same,GI50,[49],> 100 µM (inactive)
same,GI50,[50],> 100 µM (inactive)
same,GI50,[51],> 100 µM (inactive)
same,GI50,[52],> 100 µM (inactive)
same,GI50,[53],> 100 µM (inactive)
same,GI50,[54],> 100 µM (inactive)
Oc1ccc(Cn2c(-c3ccc(O)cc3)nc3ccccc32)cc1,GI50,[1],> 100 µM (inactive)
same,GI50,[2],> 100 µM (inactive)
same,GI50,[3],> 100 µM (inactive)
same,GI50,[4],> 100 µM (inactive)
same,GI50,[5],> 100 µM (inactive)
same,GI50,[6],> 100 µM (inactive)
same,GI50,[7],> 100 µM (inactive)
same,GI50,[8],> 100 µM (inactive)
same,GI50,[55],> 100 µM (inactive)
same,GI50,[9],> 100 µM (inactive)
same,GI50,[10],> 100 µM (inactive)
same,GI50,[12],> 100 µM (inactive)
same,GI50,[56],> 100 µM (inactive)
same,GI50,[13],> 100 µM (inactive)
same,GI50,[57],> 100 µM (inactive)
same,GI50,[58],> 100 µM (inactive)
same,GI50,[59],> 100 µM
same,GI50,[14],> 100 µM (inactive)
same,GI50,[15],> 100 µM (inactive)
same,GI50,[16],> 31.6 µM (inactive)
same,GI50,[18],> 100 µM (inactive)
same,GI50,[19],> 100 µM (inactive)
same,GI50,[20],> 100 µM (inactive)
same,GI50,[21],> 100 µM (inactive)
same,GI50,[60],> 100 µM (inactive)
same,GI50,[22],> 100 µM (inactive)
same,GI50,[61],> 100 µM (inactive)
same,GI50,[23],> 100 µM (inactive)
same,GI50,[24],> 100 µM (inactive)
same,GI50,[25],> 100 µM (inactive)
same,GI50,[62],> 31.6 µM (inactive)
same,GI50,[26],> 100 µM (inactive)
same,GI50,[27],> 100 µM (inactive)
same,GI50,[63],> 100 µM (inactive)
same,GI50,[28],> 100 µM (inactive)
same,GI50,[29],> 100 µM (inactive)
same,GI50,[30],> 100 µM (inactive)
same,GI50,[31],> 100 µM (inactive)
same,GI50,[32],> 100 µM (inactive)
same,GI50,[33],> 100 µM (inactive)
same,GI50,[34],> 100 µM (inactive)
same,GI50,[35],> 100 µM (inactive)
same,GI50,[64],> 100 µM (inactive)
same,GI50,[36],> 100 µM (inactive)
same,GI50,[65],> 100 µM (inactive)
same,GI50,[37],> 100 µM (inactive)
same,GI50,[66],> 100 µM (inactive)
same,GI50,[38],> 100 µM (inactive)
same,GI50,[39],> 100 µM (inactive)
same,GI50,[40],> 100 µM (inactive)
same,GI50,[41],> 100 µM (inactive)
same,GI50,[42],> 100 µM (inactive)
same,GI50,[67],> 100 µM (inactive)
same,GI50,[43],> 100 µM (inactive)
same,GI50,[44],> 100 µM (inactive)
same,GI50,[68],> 100 µM (inactive)
same,GI50,[45],> 100 µM (inactive)
same,GI50,[46],> 100 µM (inactive)
same,GI50,[47],> 100 µM (inactive)
same,GI50,[69],> 100 µM (inactive)
same,GI50,[48],> 100 µM (inactive)
same,GI50,[49],> 100 µM (inactive)
same,GI50,[50],> 100 µM (inactive)
same,GI50,[51],> 100 µM (inactive)
same,GI50,[52],> 100 µM (inactive)
same,GI50,[53],> 100 µM (inactive)
same,GI50,[54],> 100 µM (inactive)
